{
  "source": "the OligoGym collection",
  "note": "Oligonucleotides are given in HELM: sugar(base)linkage, 5' to 3'; d 2'-deoxyribose, r ribose, m 2'-O-methylribose, p phosphate. ss, as = sense and antisense strand; note: test concentration or dose not given here",
  "data": [
    {"biological_target": "TMEM63B", "experiment": "reporter assay of Huesken 2005", "conditions": "siRNA", "units": {"normalised inhibition (eCFP-eYFP dual reporter)": "%"}, "values": [
      {"substance": "RNA1{r(G)p.r(C)p.r(A)p.r(U)p.r(U)p.r(U)p.r(U)p.r(G)p.r(A)p.r(G)p.r(G)p.r(A)p.r(A)p.r(G)p.r(C)p.r(C)p.r(U)p.r(A)p.r(C)p.d(T)p.d(T)}|RNA2{r(G)p.r(U)p.r(A)p.r(G)p.r(G)p.r(C)p.r(U)p.r(U)p.r(C)p.r(C)p.r(U)p.r(C)p.r(A)p.r(A)p.r(A)p.r(A)p.r(U)p.r(G)p.r(C)p.d(T)p.d(T)}$$$RNA1{StrandType:ss}|RNA2{StrandType:as}$", "normalised inhibition (eCFP-eYFP dual reporter)": 87.3},
      {"substance": "RNA1{r(U)p.r(G)p.r(U)p.r(G)p.r(U)p.r(A)p.r(A)p.r(A)p.r(U)p.r(G)p.r(C)p.r(C)p.r(A)p.r(G)p.r(G)p.r(G)p.r(C)p.r(U)p.r(G)p.d(T)p.d(T)}|RNA2{r(C)p.r(A)p.r(G)p.r(C)p.r(C)p.r(C)p.r(U)p.r(G)p.r(G)p.r(C)p.r(A)p.r(U)p.r(U)p.r(U)p.r(A)p.r(C)p.r(A)p.r(C)p.r(A)p.d(C)p.d(G)}$$$RNA1{StrandType:ss}|RNA2{StrandType:as}$", "normalised inhibition (eCFP-eYFP dual reporter)": 66.8},
      {"substance": "RNA1{r(A)p.r(G)p.r(C)p.r(A)p.r(G)p.r(G)p.r(U)p.r(G)p.r(G)p.r(A)p.r(G)p.r(G)p.r(C)p.r(C)p.r(A)p.r(U)p.r(U)p.r(G)p.r(A)p.d(T)p.d(T)}|RNA2{r(U)p.r(C)p.r(A)p.r(A)p.r(U)p.r(G)p.r(G)p.r(C)p.r(C)p.r(U)p.r(C)p.r(C)p.r(A)p.r(C)p.r(C)p.r(U)p.r(G)p.r(C)p.r(U)p.d(C)p.d(A)}$$$RNA1{StrandType:ss}|RNA2{StrandType:as}$", "normalised inhibition (eCFP-eYFP dual reporter)": 77.2},
      {"substance": "RNA1{r(C)p.r(U)p.r(G)p.r(C)p.r(U)p.r(C)p.r(A)p.r(U)p.r(G)p.r(U)p.r(A)p.r(C)p.r(A)p.r(U)p.r(G)p.r(A)p.r(U)p.r(C)p.r(C)p.d(T)p.d(T)}|RNA2{r(G)p.r(G)p.r(A)p.r(U)p.r(C)p.r(A)p.r(U)p.r(G)p.r(U)p.r(A)p.r(C)p.r(A)p.r(U)p.r(G)p.r(A)p.r(G)p.r(C)p.r(A)p.r(G)p.d(G)p.d(C)}$$$RNA1{StrandType:ss}|RNA2{StrandType:as}$", "normalised inhibition (eCFP-eYFP dual reporter)": 49},
      {"substance": "RNA1{r(C)p.r(A)p.r(U)p.r(G)p.r(A)p.r(C)p.r(C)p.r(U)p.r(A)p.r(C)p.r(A)p.r(G)p.r(U)p.r(A)p.r(U)p.r(C)p.r(A)p.r(C)p.r(C)p.d(T)p.d(T)}|RNA2{r(G)p.r(G)p.r(U)p.r(G)p.r(A)p.r(U)p.r(A)p.r(C)p.r(U)p.r(G)p.r(U)p.r(A)p.r(G)p.r(G)p.r(U)p.r(C)p.r(A)p.r(U)p.r(G)p.d(A)p.d(C)}$$$RNA1{StrandType:ss}|RNA2{StrandType:as}$", "normalised inhibition (eCFP-eYFP dual reporter)": 58.9},
      {"substance": "RNA1{r(A)p.r(G)p.r(G)p.r(A)p.r(G)p.r(G)p.r(A)p.r(U)p.r(G)p.r(A)p.r(U)p.r(C)p.r(U)p.r(G)p.r(G)p.r(U)p.r(G)p.r(A)p.r(A)p.d(T)p.d(T)}|RNA2{r(U)p.r(U)p.r(C)p.r(A)p.r(C)p.r(C)p.r(A)p.r(G)p.r(A)p.r(U)p.r(C)p.r(A)p.r(U)p.r(C)p.r(C)p.r(U)p.r(C)p.r(C)p.r(U)p.d(T)p.d(G)}$$$RNA1{StrandType:ss}|RNA2{StrandType:as}$", "normalised inhibition (eCFP-eYFP dual reporter)": 77.4},
      {"substance": "RNA1{r(A)p.r(G)p.r(U)p.r(G)p.r(C)p.r(C)p.r(C)p.r(A)p.r(C)p.r(A)p.r(A)p.r(C)p.r(U)p.r(A)p.r(C)p.r(A)p.r(A)p.r(G)p.r(A)p.d(T)p.d(T)}|RNA2{r(U)p.r(C)p.r(U)p.r(U)p.r(G)p.r(U)p.r(A)p.r(G)p.r(U)p.r(U)p.r(G)p.r(U)p.r(G)p.r(G)p.r(G)p.r(C)p.r(A)p.r(C)p.r(U)p.d(G)p.d(A)}$$$RNA1{StrandType:ss}|RNA2{StrandType:as}$", "normalised inhibition (eCFP-eYFP dual reporter)": 81.7},
      {"substance": "RNA1{r(G)p.r(C)p.r(A)p.r(A)p.r(C)p.r(G)p.r(C)p.r(C)p.r(A)p.r(U)p.r(G)p.r(G)p.r(A)p.r(C)p.r(C)p.r(U)p.r(G)p.r(C)p.r(U)p.d(T)p.d(T)}|RNA2{r(A)p.r(G)p.r(C)p.r(A)p.r(G)p.r(G)p.r(U)p.r(C)p.r(C)p.r(A)p.r(U)p.r(G)p.r(G)p.r(C)p.r(G)p.r(U)p.r(U)p.r(G)p.r(C)p.d(C)p.d(G)}$$$RNA1{StrandType:ss}|RNA2{StrandType:as}$", "normalised inhibition (eCFP-eYFP dual reporter)": 71.1},
      {"substance": "RNA1{r(C)p.r(U)p.r(U)p.r(C)p.r(C)p.r(U)p.r(G)p.r(U)p.r(A)p.r(U)p.r(C)p.r(U)p.r(G)p.r(C)p.r(U)p.r(G)p.r(C)p.r(U)p.r(C)p.d(T)p.d(T)}|RNA2{r(G)p.r(A)p.r(G)p.r(C)p.r(A)p.r(G)p.r(C)p.r(A)p.r(G)p.r(A)p.r(U)p.r(A)p.r(C)p.r(A)p.r(G)p.r(G)p.r(A)p.r(A)p.r(G)p.d(G)p.d(C)}$$$RNA1{StrandType:ss}|RNA2{StrandType:as}$", "normalised inhibition (eCFP-eYFP dual reporter)": 75.8},
      {"substance": "RNA1{r(A)p.r(G)p.r(A)p.r(G)p.r(G)p.r(C)p.r(G)p.r(C)p.r(A)p.r(A)p.r(C)p.r(G)p.r(U)p.r(G)p.r(A)p.r(A)p.r(G)p.r(C)p.r(G)p.d(T)p.d(T)}|RNA2{r(C)p.r(G)p.r(C)p.r(U)p.r(U)p.r(C)p.r(A)p.r(C)p.r(G)p.r(U)p.r(U)p.r(G)p.r(C)p.r(G)p.r(C)p.r(C)p.r(U)p.r(C)p.r(U)p.d(C)p.d(G)}$$$RNA1{StrandType:ss}|RNA2{StrandType:as}$", "normalised inhibition (eCFP-eYFP dual reporter)": 35.7},
      {"substance": "RNA1{r(A)p.r(C)p.r(G)p.r(G)p.r(A)p.r(C)p.r(A)p.r(C)p.r(A)p.r(G)p.r(A)p.r(C)p.r(U)p.r(U)p.r(C)p.r(C)p.r(A)p.r(G)p.r(U)p.d(T)p.d(T)}|RNA2{r(A)p.r(C)p.r(U)p.r(G)p.r(G)p.r(A)p.r(A)p.r(G)p.r(U)p.r(C)p.r(U)p.r(G)p.r(U)p.r(G)p.r(U)p.r(C)p.r(C)p.r(G)p.r(U)p.d(G)p.d(A)}$$$RNA1{StrandType:ss}|RNA2{StrandType:as}$", "normalised inhibition (eCFP-eYFP dual reporter)": 85.7},
      {"substance": "RNA1{r(U)p.r(C)p.r(A)p.r(U)p.r(C)p.r(A)p.r(U)p.r(C)p.r(A)p.r(C)p.r(C)p.r(A)p.r(C)p.r(C)p.r(A)p.r(U)p.r(G)p.r(G)p.r(A)p.d(T)p.d(T)}|RNA2{r(U)p.r(C)p.r(C)p.r(A)p.r(U)p.r(G)p.r(G)p.r(U)p.r(G)p.r(G)p.r(U)p.r(G)p.r(A)p.r(U)p.r(G)p.r(A)p.r(U)p.r(G)p.r(A)p.d(T)p.d(G)}$$$RNA1{StrandType:ss}|RNA2{StrandType:as}$", "normalised inhibition (eCFP-eYFP dual reporter)": 79.2},
      {"substance": "RNA1{r(C)p.r(A)p.r(U)p.r(C)p.r(U)p.r(G)p.r(G)p.r(U)p.r(G)p.r(G)p.r(C)p.r(U)p.r(G)p.r(C)p.r(G)p.r(C)p.r(U)p.r(G)p.r(C)p.d(T)p.d(T)}|RNA2{r(G)p.r(C)p.r(A)p.r(G)p.r(C)p.r(G)p.r(C)p.r(A)p.r(G)p.r(C)p.r(C)p.r(A)p.r(C)p.r(C)p.r(A)p.r(G)p.r(A)p.r(U)p.r(G)p.d(A)p.d(A)}$$$RNA1{StrandType:ss}|RNA2{StrandType:as}$", "normalised inhibition (eCFP-eYFP dual reporter)": 29.3},
      {"substance": "RNA1{r(G)p.r(G)p.r(C)p.r(C)p.r(A)p.r(A)p.r(G)p.r(C)p.r(U)p.r(G)p.r(G)p.r(A)p.r(C)p.r(A)p.r(A)p.r(G)p.r(A)p.r(A)p.r(G)p.d(T)p.d(T)}|RNA2{r(C)p.r(U)p.r(U)p.r(C)p.r(U)p.r(U)p.r(G)p.r(U)p.r(C)p.r(C)p.r(A)p.r(G)p.r(C)p.r(U)p.r(U)p.r(G)p.r(G)p.r(C)p.r(C)p.d(G)p.d(G)}$$$RNA1{StrandType:ss}|RNA2{StrandType:as}$", "normalised inhibition (eCFP-eYFP dual reporter)": 65}
    ]}
  ]
}
